Assay [1] has as its system Hs68. The assay is described as follows: Anti-HCMV activity in Hs 68 cell line by plaque reduction assay. The class given is functional, cell-based. Particulars: Homo sapiens.
Assay [2] concerns Hs68. Kind of assay: Cytotoxicity in Hs 68 cell line by inhibition of cell proliferation. The class given is functional. Particulars: Homo sapiens.

The term IC50 denotes the concentration at which inhibition is half-maximal. High values mean weaker potency, low ones greater potency. As usually defined, the CC50 is the concentration at which the toxic effect on the cells reaches its halfway point. A low value points to harm at low concentration.

SMILES strings stand for the structures. Converted amounts (≈) assume the structure as drawn.

`O=C(O)c1cc2ccncc2cn1`: in the assay on Hs68 [1], the IC50 was found to be 0.5 µg/mL (≈ 2.87 µM). For `COc1ccccc1CNC(=O)c1ccc2ccccc2n1`, the CC50 in the assay with Hs68 [2] stood at 10 µg/mL (≈ 34.2 µM). Besides, in the assay on Hs68 [1], the IC50 was > 25 µg/mL.

The values are drawn from ChEMBL document CHEMBL1131965, “Isoquinoline-6-carboxamides as potent and selective anti-human cytomegalovirus (HCMV) inhibitors” (Bioorg Med Chem Lett, 1999).
